{"source": "patent US20240400722A1", "about": "“Chemically Inducible Heterodimerizing System and A Method For Generation Thereof” (Miltenyi Biotec B.V. & Co. KG, priority 2023, published 2024)", "key": {"Raji target cells": {"test_system": "Raji target cells", "experiment": "IFN-γ and IL-2 secretion (ELISA) of transduced split CAR T cells co-cultured with Raji target cells", "format": "cell-based, human", "settings": "medium, 0.1 μM or 100 μM caffeine, overnight, E:T 2:1", "description": "The nucleotide sequence encoding the monomeric CAR chain 1 (SEQ ID NO:34) containing dfM1-1 was fused to the nucleotide sequence encoding the dimeric CAR chain 2 (SEQ ID NO:36) or to the nucleotide sequence encoding monomeric CAR chain 2 (SEQ ID NO:37) via a furin cleavage site and 2A sequence (SEQ ID NO:41) and cloned into a third generation lentiviral expression vector with puromycin resistence gene (pCDH, System Biosciences). This plasmid, along with second-generation viral packaging plasmids (psPAX2 and pMD2.G, Addgene plasmids #12260 and #12259), was co-transfected in Lenti-X 293T cells (Takara) using the PureFection Transfection Reagent (System Biosciences) according to instructions provided by the manufacturer. Supernatants were collected on day 2 and 3 following transfection and concentrated 100-fold using Lenti-X Concentrator (Takara) according to the manufacturer's instructions. Viral suspensions were resuspended in RPMI-1640 medium supplemented with 10% FCS and 1% penicillin-streptomycin and frozen at −80° C. […]\nSupernatants of triplicate wells were pooled and stored at −80° C. IFN-γ and IL-2 secretion was quantified by ELISA using kits from Biolegend (ELISA MAX Deluxe Set Human IFN-γ and ELISA MAX Deluxe Set Human IL-2, respectively), according to the manufacturer's instructions."}, "acVHH-V104D/dfM1-1": {"test_system": "acVHH-V104D/dfM1-1", "experiment": "NanoBiT assay in Jurkat T cells, small molecule titration of acVHH-V104D/dfM1-1", "format": "cell-based, llama", "from_the_text": "(§1) The ac VHH variants were N-terminally fused to an extracellular globular domain used to assess expression, as well as a transmembrane domain, and C-terminally fused to a subunit of the split NanoLuc (NanoBiT® system), Promega. Thus, the resulting fusion protein consisted of an extracellular globular domain, followed by a transmembrane domain and intracellular ac VHH variants followed by a subunit of split NanoLuc luciferase.\n(§2) The different chains built were as follows: the first polypeptide chain comprised truncated EGFR extracellular and transmembrane domain, followed by a 2×G4S linker and cither ac VHH-V104D or ac VHH-WT, followed by a linker (SEQ ID NO:31) and 11S NanoBiT® “Large BiT”, whereas the second polypeptide chain comprised truncated HER2 extracellular and transmembrane domain, followed by a linker (SEQ ID NO:32) and either ac VHH-V104D or ac VHH-WT or ac VHH-M1 or acVHH-M2 or dfM1-1 or dfM1-2, followed by a linker (SEQ ID NO:33) and 114 NanoBiT® “Small BiT”. […] The principle of the assay is as follows: upon binding of (i.e. dimerization) of the respective ac VHH variants, the fused NanoLuc luciferase subunits are brought into close proximity (the two subunits being fused to the two different polypeptide chains, respectively), thus resulting in a functional luciferase enzyme, whose activity can be measured. […]"}, "acVHH-V104D": {"target": "acVHH-V104D", "settings": "read-out: binding affinity (KD) of caffeine to acVHH-V104D; SPR multi-cycle kinetics, steady state analysis; acVHH-V104D immobilised on CM5 chip", "experimental": "A stock of 30 μg/mL protein ac VHH-V104D was prepared in 10 mM NaAc buffer of pH 5 and covalently immobilised on a CM5 chip (GE Healthcare) with a 300 sec contact time and 10 μL/min flow rate to reach 4 600 response units (RU). […] KD values were obtained by steady state analysis."}, "[1]": {"settings": "cited from earlier work"}, "acVHH-V104D/acVHH-M1": {"test_system": "acVHH-V104D/acVHH-M1", "settings": "Jurkat T cells; compared with homodimeric switch acVHH-WT", "from_the_text": "as §1, §2"}, "[2]": {"test_system": "CD19-positive Jurkat target cells", "experiment": "Lysis of target cells by split CAR-expressing primary human T cells with or without dimerizer", "format": "cell-based", "settings": "50 μM caffeine or medium only, E:T 2:1, 4 h; split CARs with dfM1-1 or dfM1-2 and acVHH V104D", "description": "4 different architectures of split CARs consisting of two chains were investigated per acVHH variant where both the first and second chain of the split CAR is either monomeric or dimeric. A dimeric first CAR chain entails an FMC63 scFv followed by a linker followed by a Flag tag followed by a CD8a hinge and transmembrane domain followed by a 4-1BB co-stimulatory domain followed by a linker followed by acVHH dfM1-1 or dfM1-2 (SEQ ID NO:34 where ac VHH is dfM1-1). The only difference for a monomeric first CAR chain is the mutation of the two cysteine residues in the CD8a hinge to serine residues (SEQ ID NO:35). A dimeric second chain entails a DAP10 extracellular domain followed by a CD8 transmembrane domain followed by 2 amino acids followed by a 4-1BB co-stimulatory domain followed by a linker followed by ac VHH V104D followed by a linker followed by CD3z signaling domain followed by a linker followed by m Cherry (SEQ ID NO:36). […]\nAfter electroporation, the cells were incubated for 6 h at 37° C. […] The cells were co-cultured for 4 h at 37° C., then 150 μg/mL luciferin (Xenolight D-luciferin, Perkin Elmer) was added to each well and luminescence was measured after 20 min with an ENSPIRE Multimode plate reader (Perkin Elmer). Specific lysis was calculated according to the formula:"}, "acVHH-V104D/dfM1-2": {"test_system": "acVHH-V104D/dfM1-2", "experiment": "NanoBiT assay in Jurkat T cells, small molecule titration of acVHH-V104D/dfM1-2", "format": "cell-based, llama", "from_the_text": "as §1, §2"}, "acVHH-V104D+acVHH-M1": {"test_system": "acVHH-V104D+acVHH-M1", "experiment": "Yeast display, small molecule-triggered heterodimerization acVHH-V104D + acVHH-M1", "format": "binding, llama", "settings": "500 nM soluble acVHH-V104D ± 10 μM compound", "experimental": "(§3) Expression of the acVHH variants on yeast was induced by culturing the cells in SG-CAA medium (20 g/L galactose, 2 g/L glucose, 6.7 g/L yeast nitrogen base, 5 g/L bacto casamino acids, 10.2 g/L Na2HPO4*7 H2O, 8.56 g/L NaH2PO4*H2O) overnight at 20° C. and 180 rpm. Detection of full-length proteins on the surface of the cells was carried out by staining the cells with anti-c-myc AlexaFluor 488 (9E10, Thermo Fisher). […] After a washing step with PBSA, they were stained with an anti-HA-Alexa Fluor 488 (BioLegend) to gate for displaying yeast cells and the geometric mean fluorescence intensity (gMFI) of binding to acVHH-V104D, detected by co-staining with a Penta-His-Alexa Fluor 647 (Qiagen) (recognizing the His-tag on acVHH-V104D) was measured.\n(§4) 56 clones of the library were sequenced as explained in Example 2. […] Their binding and affinity to soluble acVHH-V104D as well as full length display was assessed with yeast surface display as described in Example 2.\n(§5) EC50 values were calculated like the KD values by fitting the gMFI binding values to a 1:1 binding interaction model (Zajc et al., Methods Mol Biology. 2022; 2491:155-173)."}, "acVHH-V104D+acVHH-M2": {"test_system": "acVHH-V104D+acVHH-M2", "format": "binding, llama", "settings": "500 nM soluble acVHH-V104D ± 10 μM compound", "experimental": "as §3"}, "V104D+dfM1-2": {"test_system": "V104D+dfM1-2", "settings": "500 nM soluble acVHH-V104D ± 10 μM compound", "experimental": "as §3, §4, §5"}, "V104D+dfM1-1": {"test_system": "V104D+dfM1-1", "settings": "500 nM soluble acVHH-V104D ± 10 μM compound", "experimental": "as §3, §4, §5"}, "[3]": {"settings": "compared with homodimeric switch acVHH-WT"}, "[4]": {"settings": "increasing concentrations of theobromine"}}, "note": "“Also recorded” adds a separate entry of the source.", "data": [{"smiles": "Cn1c(=O)c2c(ncn2C)n(C)c1=O", "note": "[caffeine]", "values": [{"measurement": "IFN-γ and IL-2 secretion of split CAR T cells", "setting": "Raji target cells", "value": "strong dependence"}, {"measurement": "EC50 for caffeine, V104D+dfM1-1, NanoBiT", "setting": "acVHH-V104D/dfM1-1; [3]", "value": "increased"}, {"measurement": "Kd", "setting": "acVHH-V104D", "value": 72.4, "unit": "mM"}, {"measurement": "plasma levels of caffeine", "setting": "[1]; absence of coffee, tea and chocolate consumption for 21 days, detection limit of the method", "value": "< 500", "unit": "nM"}, {"measurement": "maximum plasma caffeine levels", "setting": "[1]; after drinking one cup of coffee", "value": "~10", "unit": "µM"}, {"measurement": "caffeine plasma levels", "setting": "[1]; nonhabitual coffee drinkers after coffee abstinence for at least 16 hours", "value": "1.9 ± 1.6", "unit": "µmol/L"}, {"measurement": "EC50 for caffeine, V104D+M1, NanoBiT", "setting": "acVHH-V104D/acVHH-M1", "value": "increased"}, {"measurement": "lysis of CD19-positive Jurkat T cells by split CAR T cells", "setting": "[2]", "value": "caffeine-dependent cytotoxic activity"}, {"measurement": "EC50 for caffeine, V104D+dfM1-2, NanoBiT", "setting": "acVHH-V104D/dfM1-2; [3]", "value": "increased"}]}, {"smiles": "Cn1c(=O)[nH]c2ncn(C)c2c1=O", "note": "[paraxanthine]", "values": [{"measurement": "triggering of heterodimerization acVHH-V104D/acVHH-M1", "setting": "acVHH-V104D+acVHH-M1", "value": "can trigger"}, {"measurement": "triggering of heterodimerization acVHH-V104D/acVHH-M2", "setting": "acVHH-V104D+acVHH-M2", "value": "can trigger"}]}, {"smiles": "Cn1cnc2c1c(=O)[nH]c(=O)n2C", "note": "[theobromine]", "values": [{"measurement": "triggering of heterodimeric switch acVHH-V104D/dfM1-1", "setting": "acVHH-V104D/dfM1-1; [4]", "value": "can trigger"}, {"measurement": "triggering of heterodimerization acVHH-V104D/acVHH-M1", "setting": "acVHH-V104D+acVHH-M1", "value": "can trigger"}, {"measurement": "triggering of heterodimerization acVHH-V104D/acVHH-M2", "setting": "acVHH-V104D+acVHH-M2", "value": "can trigger"}, {"measurement": "triggering of heterodimeric switch acVHH-V104D/dfM1-2", "setting": "acVHH-V104D/dfM1-2; [4]", "value": "can trigger"}]}, {"smiles": "Cn1c(=O)c2[nH]cnc2n(C)c1=O", "note": "[theophylline]", "values": [{"measurement": "triggering of heterodimerization acVHH-V104D/acVHH-M1", "setting": "acVHH-V104D+acVHH-M1", "value": "can trigger; also recorded: can be triggered"}, {"measurement": "triggering of heterodimerization acVHH-V104D/dfM1-2", "setting": "V104D+dfM1-2", "value": "can be triggered"}, {"measurement": "triggering of heterodimerization acVHH-V104D/dfM1-1", "setting": "V104D+dfM1-1", "value": "can be triggered"}, {"measurement": "triggering of heterodimerization acVHH-V104D/acVHH-M2", "setting": "acVHH-V104D+acVHH-M2", "value": "can trigger"}]}]}
